Test results from US20230111310A1, “CARBOXYLIC ACID DERIVATIVE-SUBSTITUTED IMINO ARYL COMPOUND, PREPARATION METHOD THEREFOR, HERBICIDAL COMPOSITION AND USE THEREOF” (Qingdao Kingagroot Chemical Compound Co., Ltd., priority 2020, published 2023).

These compounds were tested on Setaria viridis (assay: Weeding effect in post-emergence stage). Conditions: Dose 30 g/ha; fresh weight control rate level.
Assay type: in vivo
Procedure, shortened: (§1)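 Doses of 500, 250, 125, 60, 30, 15 and 7.5 g/ha, with methyl oleate synergist (1.5 liter/ha) and Tween 80 from acetone solution, applied by spray tower post-emergence (2–3 leaf stage). Weed control scored after 3 further greenhouse weeks, averaged over triplicates.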

| SMILES | Weeding effect in post-emergence stage, Setaria viridis (level) |
| --- | --- |
| C[C@@H](O/N=C/c1cc(-n2c(=O)n(C)c(=S)n(C)c2=O)c(F)cc1Cl)C(=O)O [438(R)] | 5 (Level 5: growth control rate is above 85%) |
| C[C@@H](O/N=C/c1cc(-n2c(=O)n(C)c(=S)n(C)c2=O)c(F)cc1Cl)C(=O)OCC(F)(F)F [439(R)] | 5 (Level 5: growth control rate is above 85%) |

Same assay, conditions: Dose 60 g/ha; fresh weight control rate level

| SMILES | Weeding effect in post-emergence stage, Setaria viridis (level) |
| --- | --- |
| COC(=O)[C@@H](C)O/N=C/c1cc(-n2c(=S)cc(C(F)(F)F)n(C)c2=S)c(F)cc1C(F)(F)F [392(R)] | 5 (Level 5: growth control rate is above 85%) |
| COC(=O)[C@@H](C)O/N=C/c1cc(-n2c(=S)cc(C(F)(F)F)n(C)c2=S)c(F)cc1C#N [393(R)] | 5 (Level 5: growth control rate is above 85%) |
| COC(=O)[C@@H](C)O/N=C/c1cc(-n2c(=O)cc(C(F)(F)F)n(C)c2=S)c(F)cc1Br [394(R)] | 5 (Level 5: growth control rate is above 85%) |
| COC(=O)[C@@H](C)O/N=C/c1cc(-n2c(=O)cc(C(F)(F)F)n(C)c2=S)c(F)cc1C(F)(F)F [395(R)] | 5 (Level 5: growth control rate is above 85%) |
| COC(=O)[C@@H](C)O/N=C/c1cc(-n2c(=O)cc(C(F)(F)F)n(C)c2=S)c(F)cc1C#N [396(R)] | 5 (Level 5: growth control rate is above 85%) |

Same assay, conditions: Dose 250 g/ha; fresh weight control rate level

| SMILES | Weeding effect in post-emergence stage, Setaria viridis (level) |
| --- | --- |
| CCn1c(C(F)(F)F)cc(=O)n(-c2cc(/C=N/O[C@H](C)C(=O)OC)c(Cl)cc2F)c1=O [426(R)] | 5 (Level 5: growth control rate is above 85%) |

What follows are compounds tested on Abutilon theophrasti (assay: Weeding effect in post-emergence stage). Conditions: Dose 30 g/ha; fresh weight control rate level.
Assay type: in vivo
Procedure, shortened: as §1

| SMILES | Weeding effect in post-emergence stage, Abutilon theophrasti (level) |
| --- | --- |
| C[C@@H](O/N=C/c1cc(-n2c(=O)n(C)c(=S)n(C)c2=O)c(F)cc1Cl)C(=O)O [438(R)] | 5 (Level 5: growth control rate is above 85%) |
| C[C@@H](O/N=C/c1cc(-n2c(=O)n(C)c(=S)n(C)c2=O)c(F)cc1Cl)C(=O)OCC(F)(F)F [439(R)] | 5 (Level 5: growth control rate is above 85%) |

Same assay, conditions: Dose 60 g/ha; fresh weight control rate level

| SMILES | Weeding effect in post-emergence stage, Abutilon theophrasti (level) |
| --- | --- |
| COC(=O)[C@@H](C)O/N=C/c1cc(-n2c(=S)cc(C(F)(F)F)n(C)c2=S)c(F)cc1C(F)(F)F [392(R)] | 5 (Level 5: growth control rate is above 85%) |
| COC(=O)[C@@H](C)O/N=C/c1cc(-n2c(=S)cc(C(F)(F)F)n(C)c2=S)c(F)cc1C#N [393(R)] | 5 (Level 5: growth control rate is above 85%) |
| COC(=O)[C@@H](C)O/N=C/c1cc(-n2c(=O)cc(C(F)(F)F)n(C)c2=S)c(F)cc1Br [394(R)] | 5 (Level 5: growth control rate is above 85%) |
| COC(=O)[C@@H](C)O/N=C/c1cc(-n2c(=O)cc(C(F)(F)F)n(C)c2=S)c(F)cc1C(F)(F)F [395(R)] | 5 (Level 5: growth control rate is above 85%) |
| COC(=O)[C@@H](C)O/N=C/c1cc(-n2c(=O)cc(C(F)(F)F)n(C)c2=S)c(F)cc1C#N [396(R)] | 5 (Level 5: growth control rate is above 85%) |

Same assay, conditions: Dose 250 g/ha; fresh weight control rate level

| SMILES | Weeding effect in post-emergence stage, Abutilon theophrasti (level) |
| --- | --- |
| CCn1c(C(F)(F)F)cc(=O)n(-c2cc(/C=N/O[C@H](C)C(=O)OC)c(Cl)cc2F)c1=O [426(R)] | 5 (Level 5: growth control rate is above 85%) |

What follows are compounds tested on Eleusine indica (assay: Weeding effect in post-emergence stage). Conditions: Dose 30 g/ha; fresh weight control rate level.
Assay type: in vivo
Procedure, shortened: as §1

| SMILES | Weeding effect in post-emergence stage, Eleusine indica (level) |
| --- | --- |
| C[C@@H](O/N=C/c1cc(-n2c(=O)n(C)c(=S)n(C)c2=O)c(F)cc1Cl)C(=O)O [438(R)] | 5 (Level 5: growth control rate is above 85%) |
| C[C@@H](O/N=C/c1cc(-n2c(=O)n(C)c(=S)n(C)c2=O)c(F)cc1Cl)C(=O)OCC(F)(F)F [439(R)] | 5 (Level 5: growth control rate is above 85%) |

Same assay, conditions: Dose 60 g/ha; fresh weight control rate level

| SMILES | Weeding effect in post-emergence stage, Eleusine indica (level) |
| --- | --- |
| COC(=O)[C@@H](C)O/N=C/c1cc(-n2c(=S)cc(C(F)(F)F)n(C)c2=S)c(F)cc1C(F)(F)F [392(R)] | 5 (Level 5: growth control rate is above 85%) |
| COC(=O)[C@@H](C)O/N=C/c1cc(-n2c(=S)cc(C(F)(F)F)n(C)c2=S)c(F)cc1C#N [393(R)] | 5 (Level 5: growth control rate is above 85%) |
| COC(=O)[C@@H](C)O/N=C/c1cc(-n2c(=O)cc(C(F)(F)F)n(C)c2=S)c(F)cc1Br [394(R)] | 5 (Level 5: growth control rate is above 85%) |
| COC(=O)[C@@H](C)O/N=C/c1cc(-n2c(=O)cc(C(F)(F)F)n(C)c2=S)c(F)cc1C(F)(F)F [395(R)] | 5 (Level 5: growth control rate is above 85%) |
| COC(=O)[C@@H](C)O/N=C/c1cc(-n2c(=O)cc(C(F)(F)F)n(C)c2=S)c(F)cc1C#N [396(R)] | 5 (Level 5: growth control rate is above 85%) |

Same assay, conditions: Dose 250 g/ha; fresh weight control rate level

| SMILES | Weeding effect in post-emergence stage, Eleusine indica (level) |
| --- | --- |
| CCn1c(C(F)(F)F)cc(=O)n(-c2cc(/C=N/O[C@H](C)C(=O)OC)c(Cl)cc2F)c1=O [426(R)] | 5 (Level 5: growth control rate is above 85%) |

The compounds below were run on Digitaria sanguinalis (assay: Weeding effect in post-emergence stage). Conditions: Dose 30 g/ha; fresh weight control rate level.
Assay type: in vivo
Procedure, shortened: as §1

| SMILES | Weeding effect in post-emergence stage, Digitaria sanguinalis (level) |
| --- | --- |
| C[C@@H](O/N=C/c1cc(-n2c(=O)n(C)c(=S)n(C)c2=O)c(F)cc1Cl)C(=O)O [438(R)] | 5 (Level 5: growth control rate is above 85%) |
| C[C@@H](O/N=C/c1cc(-n2c(=O)n(C)c(=S)n(C)c2=O)c(F)cc1Cl)C(=O)OCC(F)(F)F [439(R)] | 5 (Level 5: growth control rate is above 85%) |

Same assay, conditions: Dose 60 g/ha; fresh weight control rate level

| SMILES | Weeding effect in post-emergence stage, Digitaria sanguinalis (level) |
| --- | --- |
| COC(=O)[C@@H](C)O/N=C/c1cc(-n2c(=S)cc(C(F)(F)F)n(C)c2=S)c(F)cc1C(F)(F)F [392(R)] | 5 (Level 5: growth control rate is above 85%) |
| COC(=O)[C@@H](C)O/N=C/c1cc(-n2c(=S)cc(C(F)(F)F)n(C)c2=S)c(F)cc1C#N [393(R)] | 5 (Level 5: growth control rate is above 85%) |
| COC(=O)[C@@H](C)O/N=C/c1cc(-n2c(=O)cc(C(F)(F)F)n(C)c2=S)c(F)cc1Br [394(R)] | 5 (Level 5: growth control rate is above 85%) |
| COC(=O)[C@@H](C)O/N=C/c1cc(-n2c(=O)cc(C(F)(F)F)n(C)c2=S)c(F)cc1C(F)(F)F [395(R)] | 5 (Level 5: growth control rate is above 85%) |
| COC(=O)[C@@H](C)O/N=C/c1cc(-n2c(=O)cc(C(F)(F)F)n(C)c2=S)c(F)cc1C#N [396(R)] | 5 (Level 5: growth control rate is above 85%) |

Same assay, conditions: Dose 250 g/ha; fresh weight control rate level

| SMILES | Weeding effect in post-emergence stage, Digitaria sanguinalis (level) |
| --- | --- |
| CCn1c(C(F)(F)F)cc(=O)n(-c2cc(/C=N/O[C@H](C)C(=O)OC)c(Cl)cc2F)c1=O [426(R)] | 5 (Level 5: growth control rate is above 85%) |

Each compound was assayed on Alopecurus japonicus (assay: Weeding effect in post-emergence stage). Conditions: Dose 30 g/ha; fresh weight control rate level.
Assay type: in vivo
Procedure, shortened: as §1

| SMILES | Weeding effect in post-emergence stage, Alopecurus japonicus (level) |
| --- | --- |
| C[C@@H](O/N=C/c1cc(-n2c(=O)n(C)c(=S)n(C)c2=O)c(F)cc1Cl)C(=O)O [438(R)] | 5 (Level 5: growth control rate is above 85%) |
| C[C@@H](O/N=C/c1cc(-n2c(=O)n(C)c(=S)n(C)c2=O)c(F)cc1Cl)C(=O)OCC(F)(F)F [439(R)] | 5 (Level 5: growth control rate is above 85%) |

Same assay, conditions: Dose 60 g/ha; fresh weight control rate level

| SMILES | Weeding effect in post-emergence stage, Alopecurus japonicus (level) |
| --- | --- |
| COC(=O)[C@@H](C)O/N=C/c1cc(-n2c(=S)cc(C(F)(F)F)n(C)c2=S)c(F)cc1C(F)(F)F [392(R)] | 5 (Level 5: growth control rate is above 85%) |
| COC(=O)[C@@H](C)O/N=C/c1cc(-n2c(=S)cc(C(F)(F)F)n(C)c2=S)c(F)cc1C#N [393(R)] | 5 (Level 5: growth control rate is above 85%) |
| COC(=O)[C@@H](C)O/N=C/c1cc(-n2c(=O)cc(C(F)(F)F)n(C)c2=S)c(F)cc1Br [394(R)] | 5 (Level 5: growth control rate is above 85%) |
| COC(=O)[C@@H](C)O/N=C/c1cc(-n2c(=O)cc(C(F)(F)F)n(C)c2=S)c(F)cc1C(F)(F)F [395(R)] | 5 (Level 5: growth control rate is above 85%) |
| COC(=O)[C@@H](C)O/N=C/c1cc(-n2c(=O)cc(C(F)(F)F)n(C)c2=S)c(F)cc1C#N [396(R)] | 5 (Level 5: growth control rate is above 85%) |

Same assay, conditions: Dose 250 g/ha; fresh weight control rate level

| SMILES | Weeding effect in post-emergence stage, Alopecurus japonicus (level) |
| --- | --- |
| CCn1c(C(F)(F)F)cc(=O)n(-c2cc(/C=N/O[C@H](C)C(=O)OC)c(Cl)cc2F)c1=O [426(R)] | 5 (Level 5: growth control rate is above 85%) |

The compounds below were run on Echinochloa crusgalli (assay: Weeding effect in post-emergence stage). Conditions: Dose 30 g/ha; fresh weight control rate level.
Assay type: in vivo
Procedure, shortened: as §1

| SMILES | Weeding effect in post-emergence stage, Echinochloa crusgalli (level) |
| --- | --- |
| C[C@@H](O/N=C/c1cc(-n2c(=O)n(C)c(=S)n(C)c2=O)c(F)cc1Cl)C(=O)O [438(R)] | 5 (Level 5: growth control rate is above 85%) |
| C[C@@H](O/N=C/c1cc(-n2c(=O)n(C)c(=S)n(C)c2=O)c(F)cc1Cl)C(=O)OCC(F)(F)F [439(R)] | 5 (Level 5: growth control rate is above 85%) |

Same assay, conditions: Dose 60 g/ha; fresh weight control rate level

| SMILES | Weeding effect in post-emergence stage, Echinochloa crusgalli (level) |
| --- | --- |
| COC(=O)[C@@H](C)O/N=C/c1cc(-n2c(=S)cc(C(F)(F)F)n(C)c2=S)c(F)cc1C(F)(F)F [392(R)] | 5 (Level 5: growth control rate is above 85%) |
| COC(=O)[C@@H](C)O/N=C/c1cc(-n2c(=S)cc(C(F)(F)F)n(C)c2=S)c(F)cc1C#N [393(R)] | 5 (Level 5: growth control rate is above 85%) |
| COC(=O)[C@@H](C)O/N=C/c1cc(-n2c(=O)cc(C(F)(F)F)n(C)c2=S)c(F)cc1Br [394(R)] | 5 (Level 5: growth control rate is above 85%) |
| COC(=O)[C@@H](C)O/N=C/c1cc(-n2c(=O)cc(C(F)(F)F)n(C)c2=S)c(F)cc1C(F)(F)F [395(R)] | 5 (Level 5: growth control rate is above 85%) |
| COC(=O)[C@@H](C)O/N=C/c1cc(-n2c(=O)cc(C(F)(F)F)n(C)c2=S)c(F)cc1C#N [396(R)] | 5 (Level 5: growth control rate is above 85%) |

Same assay, conditions: Dose 250 g/ha; fresh weight control rate level

| SMILES | Weeding effect in post-emergence stage, Echinochloa crusgalli (level) |
| --- | --- |
| CCn1c(C(F)(F)F)cc(=O)n(-c2cc(/C=N/O[C@H](C)C(=O)OC)c(Cl)cc2F)c1=O [426(R)] | 5 (Level 5: growth control rate is above 85%) |
